Measurements from ChEMBL document CHEMBL5465560, “Selectivity Literature for EUbOPEN Chemogenomic Library” (2024).

How the values were obtained:
[1] = molecular target: T1, Serine/threonine-protein kinase 3 (Homo sapiens) (UniProt Q13188); assay: Selectivity interaction (Kinase panel (DSF assay)) EUB0001489b STK3
T1 sequence (whole entry): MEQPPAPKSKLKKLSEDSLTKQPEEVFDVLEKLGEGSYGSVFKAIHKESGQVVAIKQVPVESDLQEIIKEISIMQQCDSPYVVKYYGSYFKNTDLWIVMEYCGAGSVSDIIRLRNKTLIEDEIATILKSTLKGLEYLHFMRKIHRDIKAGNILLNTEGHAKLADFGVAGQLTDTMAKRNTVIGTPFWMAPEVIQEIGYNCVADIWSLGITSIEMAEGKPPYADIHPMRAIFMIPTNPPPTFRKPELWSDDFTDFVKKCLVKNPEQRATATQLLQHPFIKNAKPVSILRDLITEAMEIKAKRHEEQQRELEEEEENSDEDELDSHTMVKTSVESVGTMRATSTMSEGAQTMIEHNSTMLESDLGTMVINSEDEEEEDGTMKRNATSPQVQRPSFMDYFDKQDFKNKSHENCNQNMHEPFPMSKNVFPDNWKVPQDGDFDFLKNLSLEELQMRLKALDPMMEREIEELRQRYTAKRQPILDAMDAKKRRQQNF

[2] = molecular target: T2, Cyclin-dependent kinase 11A (Homo sapiens) (UniProt Q9UQ88); assay: Selectivity interaction (Ambit KINOMEscan and KiNATiv profiling in Jurkat cells) EUB0000090b CDK11A; assay type: cell-based; conditions: at 1 µM
T2 sequence (whole entry): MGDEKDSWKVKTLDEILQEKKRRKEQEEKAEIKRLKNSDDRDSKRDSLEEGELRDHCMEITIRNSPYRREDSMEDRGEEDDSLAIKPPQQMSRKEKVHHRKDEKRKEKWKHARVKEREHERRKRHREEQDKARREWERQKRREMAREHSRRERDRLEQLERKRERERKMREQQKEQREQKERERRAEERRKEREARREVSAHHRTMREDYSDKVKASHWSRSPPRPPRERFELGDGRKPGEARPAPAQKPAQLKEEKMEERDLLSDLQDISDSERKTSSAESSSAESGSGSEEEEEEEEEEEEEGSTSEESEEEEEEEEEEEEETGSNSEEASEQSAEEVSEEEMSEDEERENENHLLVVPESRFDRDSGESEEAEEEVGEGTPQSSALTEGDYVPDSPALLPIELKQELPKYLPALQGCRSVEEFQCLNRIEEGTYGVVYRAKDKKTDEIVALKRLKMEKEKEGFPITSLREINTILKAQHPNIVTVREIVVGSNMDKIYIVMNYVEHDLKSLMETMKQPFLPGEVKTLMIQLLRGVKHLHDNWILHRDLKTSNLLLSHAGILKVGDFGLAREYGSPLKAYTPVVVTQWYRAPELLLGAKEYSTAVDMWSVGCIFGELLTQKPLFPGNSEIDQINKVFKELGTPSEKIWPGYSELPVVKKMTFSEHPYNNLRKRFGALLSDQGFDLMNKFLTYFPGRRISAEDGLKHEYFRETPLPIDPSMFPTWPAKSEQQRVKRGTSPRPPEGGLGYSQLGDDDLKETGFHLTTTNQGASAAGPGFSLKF

[3] = molecular target: Mitogen-activated protein kinase 9 (Homo sapiens, UniProt P45984); assay: Selectivity interaction (Enzymatic assay) EUB0001199aCl MAPK9
[4] = molecular target: Mitogen-activated protein kinase kinase kinase 9 (Homo sapiens) (UniProt P80192); assay: Selectivity interaction (SelectScreen profiling (Invitrogen)) EUB0000607a MAP3K9; conditions: at 2 µM
[5] = molecular target: T3, Dual specificity protein kinase TTK (Homo sapiens) (UniProt P33981); assay: Selectivity interaction (KinomeScan (DiscoverX)) EUB0000045b TTK
T3 sequence (whole entry): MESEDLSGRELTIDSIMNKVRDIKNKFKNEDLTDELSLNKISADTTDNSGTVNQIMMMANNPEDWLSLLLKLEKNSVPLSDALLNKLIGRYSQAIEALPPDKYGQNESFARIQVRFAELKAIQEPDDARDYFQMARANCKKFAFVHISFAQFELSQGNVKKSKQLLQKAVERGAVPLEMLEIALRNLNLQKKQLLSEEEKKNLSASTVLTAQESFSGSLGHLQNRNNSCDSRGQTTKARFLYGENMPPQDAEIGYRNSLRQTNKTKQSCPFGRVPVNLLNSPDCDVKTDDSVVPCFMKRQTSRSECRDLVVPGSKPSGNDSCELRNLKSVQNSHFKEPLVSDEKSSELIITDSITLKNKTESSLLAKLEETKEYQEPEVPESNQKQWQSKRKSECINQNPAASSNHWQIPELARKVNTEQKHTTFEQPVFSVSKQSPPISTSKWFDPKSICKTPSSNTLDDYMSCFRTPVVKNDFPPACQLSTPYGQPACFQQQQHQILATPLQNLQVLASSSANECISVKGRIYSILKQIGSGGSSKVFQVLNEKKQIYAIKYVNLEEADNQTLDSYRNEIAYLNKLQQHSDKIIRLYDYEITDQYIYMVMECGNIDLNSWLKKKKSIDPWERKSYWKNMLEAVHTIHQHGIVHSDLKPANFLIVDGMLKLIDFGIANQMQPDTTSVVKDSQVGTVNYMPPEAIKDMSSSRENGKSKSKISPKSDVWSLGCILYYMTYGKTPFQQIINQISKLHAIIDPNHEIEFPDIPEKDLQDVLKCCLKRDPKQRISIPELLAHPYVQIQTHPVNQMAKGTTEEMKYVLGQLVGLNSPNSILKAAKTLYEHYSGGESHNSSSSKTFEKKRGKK

[6] = molecular target: Receptor tyrosine-protein kinase erbB-4 (Homo sapiens, UniProt Q15303); assay: Selectivity interaction (KinomeScan (DiscoverX)) EUB0000595a ERBB4; conditions: at 10 µM
[7] = molecular target: Dual specificity mitogen-activated protein kinase kinase 1 (Homo sapiens, UniProt Q02750); assay: Selectivity interaction (KinomeScan (DiscoverX)) EUB0000595a MAP2K1; conditions: at 10 µM
[8] = molecular target: Cyclin-dependent kinase 17 (Homo sapiens) (UniProt Q00537); conditions: at 10 µM
[9] = molecular target: Histamine H1 receptor (Homo sapiens, UniProt P35367); assay: Selectivity interaction (Panel of kinases, GPCRs, ion channels and transporters (enzymatic assay)) EUB0000223bCl HRH1
[10] = molecular target: Serine/threonine-protein kinase N2 (Homo sapiens, UniProt Q16513); assay: Selectivity interaction (LanthaScreen Eu Kinase Binding Assay) EUB0001632a PKN2; conditions: at 10 µM
[11] = molecular target: Ribosomal protein S6 kinase beta-1 (Homo sapiens, UniProt P23443); assay: Selectivity interaction (KinomeScan (DiscoverX)) EUB0000695a RPS6KB1; conditions: at 100 nM

Sequence of Serine/threonine-protein kinase N2 (Q16513 whole entry, looked up): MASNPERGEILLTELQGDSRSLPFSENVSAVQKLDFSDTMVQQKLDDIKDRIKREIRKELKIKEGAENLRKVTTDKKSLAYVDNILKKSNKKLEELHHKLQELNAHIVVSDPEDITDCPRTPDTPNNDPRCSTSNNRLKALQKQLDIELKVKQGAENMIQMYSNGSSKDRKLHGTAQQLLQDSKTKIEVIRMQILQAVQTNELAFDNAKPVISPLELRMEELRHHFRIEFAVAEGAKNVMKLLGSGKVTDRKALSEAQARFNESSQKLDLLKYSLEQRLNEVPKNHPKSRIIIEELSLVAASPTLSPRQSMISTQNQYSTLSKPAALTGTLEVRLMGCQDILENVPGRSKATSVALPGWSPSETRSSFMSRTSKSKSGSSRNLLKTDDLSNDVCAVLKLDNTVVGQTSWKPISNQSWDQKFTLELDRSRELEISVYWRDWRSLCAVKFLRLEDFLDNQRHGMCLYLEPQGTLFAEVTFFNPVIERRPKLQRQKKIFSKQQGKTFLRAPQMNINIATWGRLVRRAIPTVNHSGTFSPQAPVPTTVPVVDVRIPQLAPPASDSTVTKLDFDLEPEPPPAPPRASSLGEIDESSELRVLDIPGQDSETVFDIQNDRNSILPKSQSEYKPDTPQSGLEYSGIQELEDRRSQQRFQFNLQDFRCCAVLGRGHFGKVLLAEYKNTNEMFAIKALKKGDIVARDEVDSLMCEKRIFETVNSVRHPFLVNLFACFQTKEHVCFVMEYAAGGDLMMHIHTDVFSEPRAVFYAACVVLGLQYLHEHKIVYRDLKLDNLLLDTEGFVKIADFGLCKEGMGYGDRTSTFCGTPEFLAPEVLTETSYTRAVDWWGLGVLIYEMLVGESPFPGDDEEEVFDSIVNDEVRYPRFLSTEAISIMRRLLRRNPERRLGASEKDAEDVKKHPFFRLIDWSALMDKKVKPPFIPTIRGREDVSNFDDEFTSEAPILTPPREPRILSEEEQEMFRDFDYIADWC
Sequence of Histamine H1 receptor (P35367 whole entry): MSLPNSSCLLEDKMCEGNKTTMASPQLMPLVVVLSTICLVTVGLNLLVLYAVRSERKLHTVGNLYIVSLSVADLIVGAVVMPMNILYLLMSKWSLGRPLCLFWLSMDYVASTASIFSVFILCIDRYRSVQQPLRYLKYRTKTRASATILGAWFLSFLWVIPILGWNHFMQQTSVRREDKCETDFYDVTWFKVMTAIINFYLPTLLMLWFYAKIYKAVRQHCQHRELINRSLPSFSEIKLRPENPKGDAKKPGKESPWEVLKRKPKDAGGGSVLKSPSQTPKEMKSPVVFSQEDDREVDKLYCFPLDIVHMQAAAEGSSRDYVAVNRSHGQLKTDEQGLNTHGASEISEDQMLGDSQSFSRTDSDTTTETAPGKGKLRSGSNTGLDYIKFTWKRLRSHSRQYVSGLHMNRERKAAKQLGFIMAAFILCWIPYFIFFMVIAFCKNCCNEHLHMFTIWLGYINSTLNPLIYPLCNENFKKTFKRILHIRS
Sequence of Receptor tyrosine-protein kinase erbB-4 (Q15303 whole entry): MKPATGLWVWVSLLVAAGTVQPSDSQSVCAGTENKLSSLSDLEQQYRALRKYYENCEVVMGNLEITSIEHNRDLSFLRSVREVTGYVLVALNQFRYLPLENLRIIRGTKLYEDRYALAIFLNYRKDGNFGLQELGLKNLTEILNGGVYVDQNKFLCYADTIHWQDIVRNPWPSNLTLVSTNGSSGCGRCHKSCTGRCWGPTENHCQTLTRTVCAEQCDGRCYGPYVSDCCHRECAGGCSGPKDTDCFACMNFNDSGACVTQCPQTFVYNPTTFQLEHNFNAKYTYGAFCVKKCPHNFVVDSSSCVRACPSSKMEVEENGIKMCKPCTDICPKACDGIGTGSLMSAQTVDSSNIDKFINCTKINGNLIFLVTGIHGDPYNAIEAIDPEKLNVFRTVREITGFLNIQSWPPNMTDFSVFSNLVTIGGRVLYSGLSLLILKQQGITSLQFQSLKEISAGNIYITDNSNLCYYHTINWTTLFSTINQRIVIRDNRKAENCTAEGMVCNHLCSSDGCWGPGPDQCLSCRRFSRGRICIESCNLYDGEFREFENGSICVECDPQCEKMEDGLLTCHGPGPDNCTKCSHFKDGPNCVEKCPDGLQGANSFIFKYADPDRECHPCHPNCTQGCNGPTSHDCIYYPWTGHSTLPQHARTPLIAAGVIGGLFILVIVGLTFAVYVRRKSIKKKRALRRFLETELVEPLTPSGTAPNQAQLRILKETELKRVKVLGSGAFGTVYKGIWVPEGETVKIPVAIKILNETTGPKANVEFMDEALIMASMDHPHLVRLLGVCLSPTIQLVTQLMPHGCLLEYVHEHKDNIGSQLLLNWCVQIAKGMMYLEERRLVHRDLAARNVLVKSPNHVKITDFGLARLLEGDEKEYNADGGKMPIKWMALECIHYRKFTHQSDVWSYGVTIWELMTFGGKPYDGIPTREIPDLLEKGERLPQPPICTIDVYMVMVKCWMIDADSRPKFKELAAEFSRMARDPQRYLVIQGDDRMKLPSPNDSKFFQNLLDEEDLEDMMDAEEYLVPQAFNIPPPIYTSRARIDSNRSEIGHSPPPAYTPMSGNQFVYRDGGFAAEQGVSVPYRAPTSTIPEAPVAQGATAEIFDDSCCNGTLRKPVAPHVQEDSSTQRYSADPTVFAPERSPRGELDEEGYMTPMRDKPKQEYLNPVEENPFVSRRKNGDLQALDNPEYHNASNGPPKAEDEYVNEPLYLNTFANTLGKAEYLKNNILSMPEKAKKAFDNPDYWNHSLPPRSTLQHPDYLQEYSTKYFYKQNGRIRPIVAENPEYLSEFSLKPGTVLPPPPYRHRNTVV
Sequence of Mitogen-activated protein kinase 9 (P45984 whole entry): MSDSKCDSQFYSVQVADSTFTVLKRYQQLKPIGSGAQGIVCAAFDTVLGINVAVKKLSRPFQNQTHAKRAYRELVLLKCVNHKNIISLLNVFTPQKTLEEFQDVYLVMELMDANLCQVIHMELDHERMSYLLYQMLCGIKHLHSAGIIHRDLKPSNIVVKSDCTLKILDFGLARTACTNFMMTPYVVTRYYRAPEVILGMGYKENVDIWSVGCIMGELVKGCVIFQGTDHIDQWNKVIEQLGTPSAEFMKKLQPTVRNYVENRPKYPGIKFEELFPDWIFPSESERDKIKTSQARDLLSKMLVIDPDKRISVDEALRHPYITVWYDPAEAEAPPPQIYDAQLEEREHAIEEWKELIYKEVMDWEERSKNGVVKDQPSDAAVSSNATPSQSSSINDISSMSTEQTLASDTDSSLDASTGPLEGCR
Sequence of Mitogen-activated protein kinase kinase kinase 9 (Homo sapiens) (P80192 whole entry, looked up): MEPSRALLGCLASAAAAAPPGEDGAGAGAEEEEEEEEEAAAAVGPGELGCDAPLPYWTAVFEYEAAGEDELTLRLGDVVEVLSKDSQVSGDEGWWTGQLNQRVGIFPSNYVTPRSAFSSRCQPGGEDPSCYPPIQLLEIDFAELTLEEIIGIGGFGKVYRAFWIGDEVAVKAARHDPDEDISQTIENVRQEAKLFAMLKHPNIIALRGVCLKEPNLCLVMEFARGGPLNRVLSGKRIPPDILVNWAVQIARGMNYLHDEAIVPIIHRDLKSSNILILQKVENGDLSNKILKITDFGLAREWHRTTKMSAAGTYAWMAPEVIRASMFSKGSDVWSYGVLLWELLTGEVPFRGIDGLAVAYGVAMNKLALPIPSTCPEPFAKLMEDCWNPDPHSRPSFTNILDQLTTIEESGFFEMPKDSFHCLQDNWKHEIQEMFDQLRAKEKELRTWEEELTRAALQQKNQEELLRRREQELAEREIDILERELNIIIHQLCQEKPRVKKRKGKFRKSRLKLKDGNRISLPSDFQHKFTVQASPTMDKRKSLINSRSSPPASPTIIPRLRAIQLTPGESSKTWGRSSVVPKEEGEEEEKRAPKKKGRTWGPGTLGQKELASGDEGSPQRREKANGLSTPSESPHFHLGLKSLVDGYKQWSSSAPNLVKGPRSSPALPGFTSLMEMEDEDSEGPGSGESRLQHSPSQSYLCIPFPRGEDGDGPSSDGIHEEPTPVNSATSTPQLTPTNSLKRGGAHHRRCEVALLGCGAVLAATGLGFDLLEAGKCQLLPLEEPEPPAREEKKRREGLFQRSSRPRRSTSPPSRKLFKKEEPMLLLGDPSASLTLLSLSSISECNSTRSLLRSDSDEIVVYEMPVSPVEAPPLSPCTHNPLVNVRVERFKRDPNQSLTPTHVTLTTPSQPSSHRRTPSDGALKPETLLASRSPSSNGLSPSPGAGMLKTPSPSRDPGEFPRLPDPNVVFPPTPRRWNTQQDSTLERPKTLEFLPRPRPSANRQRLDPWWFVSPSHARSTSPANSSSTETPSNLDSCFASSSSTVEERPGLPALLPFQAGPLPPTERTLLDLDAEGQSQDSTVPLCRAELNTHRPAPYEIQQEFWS
Sequence of Dual specificity mitogen-activated protein kinase kinase 1 (Q02750 whole entry): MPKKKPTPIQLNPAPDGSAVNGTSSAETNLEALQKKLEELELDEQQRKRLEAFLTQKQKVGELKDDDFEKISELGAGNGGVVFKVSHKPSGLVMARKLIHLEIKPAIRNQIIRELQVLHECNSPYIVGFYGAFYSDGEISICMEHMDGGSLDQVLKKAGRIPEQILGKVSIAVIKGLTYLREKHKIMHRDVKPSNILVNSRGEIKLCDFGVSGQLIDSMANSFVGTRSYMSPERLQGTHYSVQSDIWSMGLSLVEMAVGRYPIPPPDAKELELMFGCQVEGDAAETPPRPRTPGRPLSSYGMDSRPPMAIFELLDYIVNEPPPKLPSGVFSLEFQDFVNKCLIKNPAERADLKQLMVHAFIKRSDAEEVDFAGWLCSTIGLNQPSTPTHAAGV

`CN1CCN(C(=O)c2ccc3cc2OCCOCCNc2ccn4ncc-3c4n2)CC1` gave a dTM [1] of 3.4 K.
`CN(C)C/C=C/C(=O)Nc1ccc(C(=O)N2CCCC(Nc3ncc(Cl)c(-c4c[nH]c5ccccc45)n3)C2)cc1` (configuration not stated) showed a % of control [2] of 95%.
`CN1Cc2nccc(-c3cn(C)nc3-c3ccc(F)cc3)c2C1=O` was tested, and the IC50 [3] was 4.95 µM.
For `CNC(=O)Nc1ccc(-c2nc(N3CC4CCC(C3)O4)c3cnn(C4CCC5(CC4)OCCO5)c3n2)cc1`, the % of inhibition [4] was 11%.
`C=CC(=O)Nc1cc(-n2c(=O)ccc3cnc4ccc(-c5ccc(NS(C)(=O)=O)cc5)cc4c32)ccc1C` was tested, and the % of control ([5]; at 1 µM) was 100% and the % of control ([5]; at 10 µM) was 52%.
In the case of `COCC(=O)NC/C=C/c1ccc2ncnc(Nc3ccc(Oc4ccc(C)nc4)c(C)c3)c2c1` [CP-724714], the % of control [6] is reported as 0.9% and the % of control [7] is reported as 9.4%.
Work on `Cc1cc([C@@H](C)Nc2ccccc2C(=O)O)c2nc(N3CCOCC3)cc(=O)n2c1` [AZD-6482] yielded a % of control [8] of 100%.
In the case of `COc1cc(C(=O)N2CC[C@@H](O)[C@@H](N)C2)cc2nc(-c3cc4ccccc4n3CC3CC3)n(C)c12`, the pXC50 [9] is reported as under 4.4 M.
`Cn1cc(-n2cnc3c(NCc4nc5cc(Cl)c(Cl)cc5[nH]4)nc(N4CCOCC4)nc32)cn1` was tested, and the % of inhibition [10] was -5.46%.
`Cc1cc(F)c(C(=O)Nc2cccc(-c3nncn3C(C)C)n2)cc1-n1cnc(C2CC2)c1` gave a % of control [11] of 100%.
